According to US6365628B1 (Thia Medica AS, priority 1998, dated 2002):

Columns and labels:
male Wistar rats = experiment: Hepatic levels of triacylglycerol in rats fed fatty acid analogues (Example 17); type: in vivo, rat; settings: no prefeeding
From the text: Even an increased hepatic level of triacylglycerol may be relieved by TTA. Feeding rats with an inhibitor of fatty acid oxidation will increase the level of hepatic triacylglycerol resulting in fatty liver. Tetradecyl-4-thia propionic acid (TTP) is a fatty acid analogue with a sulphur atom in the 4 position. This analogue inhibits the β-oxidation of fatty acids due to the formation of a mitochondrial inhibitor. Feeding rats with this analogue results in the formation of fatty. However, if the rats are fed with a combination of TTA and TTP, the formation of fatty liver is avoided (Table 8). This provides evidence that TTA may be used for the treatment of conditions with an increased hepatic level of triacylglycerol. Male Wistar rats had free access to water and rat maintenance chow. They were fed palmitic acid or fatty acid analogues suspended in 0.5% CMC for 6 days. In some experiments TTA or TTP were fed for 3 days before feeding both for 6 days. At the end of the experiment the rats were fasted overnight, killed, the liver removed and homogenized. Triacylglycerol was measured in the homogenate.

Wistar rats = experiment: Lipid lowering effect in normal Wistar rats (Example 4); type: in vivo, rat; settings: gavage once daily for 7 days
Experimental: Phospholipids were measured by the enzymatic method of bioMérieux, Marcy-l {grave over ( )}Etoile, France, Triacylglycerol by the Technicon Method no. SA4-0324L90, USA and Cholesterol by the Technicon Method no. SA4-0305L90, USA.
Male Wistar rats, weighing 180-200 g at the start of the experiment, were housed individually in metal wire cages in a room maintained at 12 h light-dark cycles and a constant temperature of 20±3° C. The animals were acclimatised for one week under these conditions before the start of the experiments.
TTA, TSA and eicosapentaenoic acid (EPA) were suspended in 0.5% (w/v) carboxymethyl cellulose (CMC). Six animals were used for each treatment, and a 0.5% CMC solution was administrated to the rats as control. After administration of the test compound, the rats were fasted for 12 hours and anaesthetised with haloethan. The EPA and the fatty acid derivatives were administered by gastric intubation (gavage) once daily for 7 days. Blood samples were collected by cardiac puncture, and lipid concentrations in plasma were determined as outlined in the method section.

[1] = tested on: rat liver mitochondrial β-oxidation; experiment: Mitochondrial β-oxidation in rat liver, fatty acid analogues with S in different positions (Example 18); type: in vivo; settings: [1-14C]-palmitoyl-L-carnitine as substrate
Experimental: Freshly isolated livers from individual old Zucker rats, were homogenised in ice-cold sucrose buffer (0.25 M sucrose, 10 mM HEPES (pH 7.4) and 2 mM EDTA). Post-nuclear and mitochondrial fractions were prepared using preparative differential centrifugation according to DeDuve et al. (De Duve, C., et al., Biochem. J., 60, 604-617 1955.) Modifications, purity and yield were as described earlier (Garras, A., et al., Biochim. Biophys. Acta, 1255, 154-160 1995.). Acid soluble products were measured in post-nuclear and mitochondrial enriched fractions, using [1-^14C]-palmitoyl-CoA and [1-^14C]-palmitoyl-L-carnitine (Radiochemical Centre, Amersham, England) as substrates as described earlier (Willumsen, N., et al., J. Lipid Res., 34, 13-22 1993. Carnitine palmitoyltransferase-I and -II activities were measured in the post-nuclear and mitochondrial fractions essentially as described by Bremer (Bremer, J., Biochim. Biophys. Acta, 665, 628-631 1981.) and 3-hydroxy-3-methylglutharyl-CoA synthase was measured according to Clinkenbeard et al. (Clinkenbeard, K. D., et al., J. Biol. Chem, 250, 3108-3116 1975.) in the mitochondrial fractions.
The mitochondrial β-oxidation is measured as in example 16 with the use of [1-^14C]-palmitoyl-L-carnitine as substrates.

Salmonella typhimurium = experiment: Test for mutagenic activity in Salmonella typhimurium strains; type: cell-based; settings: 3-1000 mg/plate (TTA) 2-5000 mg/plate (TSA)
From the text: (§1) Tests for mutagenic activity have been performed by Covance Laboratories Limited, England. […] Furthermore, TTA was not mutagenic when tested in mouse lymphoma cells […] L5178Y.

Escherichia coli = experiment: Test for mutagenic activity in Escherichia coli strains; type: cell-based; settings: 3-1000 mg/plate (TTA) 2-5000 mg/plate (TSA)
From the text: as §1

[2] = tested on: chinese hamster ovary cells; experiment: Chromosomal aberrations in cultured chinese hamster ovary cells; type: cell-based; settings: doses tested 12-140 mg/ml
[3] = dose 1500 mg/day/kg body weight

## CCCCCCCCCCCCCCSCCC(=O)O
Male Wistar rats; TTP 300 mg/kg/day for 6 days
  Hepatic triacylglycerol TG (μmol/g): 95,4 ± 14,7 μmol/g

## CC/C=C\C/C=C\C/C=C\C/C=C\C/C=C\CCCC(=O)O [EPA, eicosapentaenoic acid, reference compound]
Wistar rats; [3]
  Plasma lipids (% reduction of control) cholesterol: 18 % reduction of control
  Plasma lipids (% reduction of control) triglycerides: 20 % reduction of control

## CCCCCCCCCCCCCCCC(=O)O [Palm, palmitic acid]
Male Wistar rats; palmitic acid for 6 days
  Hepatic triacylglycerol TG (μmol/g): 10,9 μmol/g
[1]
  Mitochondrial β-oxidation activity (nmol/min/mg protein): 0,47 ± 0,06 nmol/min/mg protein

## Tetradecylselenoacetic acid [TSA]
Salmonella typhimurium
  Induction of mutations in strains of Salmonella typhimurium: did not induce mutations
Escherichia coli
  Induction of mutations in strains of Escherichia coli: did not induce mutations
[2]
  Chromosomal aberrations in cultured chinese hamster ovary cells: no aberrations were induced
Wistar rats; dose 15 mg/day/kg body weight
  Plasma lipids (% reduction of control) cholesterol: 20 % reduction of control
  Plasma lipids (% reduction of control) triglycerides: 25 % reduction of control
